Results from patent US6808875B2, “Methods for screening cellular proliferation using isotope labels” (priority 1997, dated 2004).

Legend:
[1] = human, in vivo
Experimental: (§1) Trimethylsilyl derivatives of nucleosides were synthesized by incubation of lyophilized hydrolysates with BSTFA:pyridine (4:1) at 100° C. for 1 hour. Samples were analyzed by GC-MS (DB-17 HT column, J&W Scientific, Folsom Calif.; HP 5890 GC and 5971MS, Hewlett Packard, Palo Alto, Calif.). Abundances of ions at mass to charge ratio (m/z) 467 and 469 were quantified under selected ion recording mode for deoxyadenosine (dA); and m/z 555 and 557 were monitored for deoxyguanosine (dG). Under the derivatization and GC-MS conditions employed, the purines (dA and dG) gave larger peaks (FIG. 3) than the pyrimidines, resulting in greater sensitivity and a higher signal-to-noise ratio. […]
One subject was a healthy normal volunteer and the other three were HIV-seropositive men, who were participating in lymphocyte kinetic studies (blood CD4 T cell counts in the range 215-377/mm^3). […] Granulocyte DNA was extracted, hydrolyzed to nucleosides and analyzed by GC-MS, as described in Section 6.1.2, supra. […]
All were clinically stable at the time of investigation. […] Granulocytes were isolated and dA enrichment measured from DNA. […]
48-hr constant intravenous infusions of labeled glucose were performed to ensure a representative time sample of T cell kinetics. Enrichments of plasma glucose were measured every 12 hr during the infusion. […]

[2] = Plasma glucose enrichment during labeled glucose infusion in rats; format: in vivo
Experimental: Trimethylsilyl derivatives of nucleosides were synthesized by incubation of lyophilized hydrolysates with BSTFA:pyridine (4:1) at 100° C. for 1 hour. Samples were analyzed by GC-MS (DB-17 HT column, J&W Scientific, Folsom Calif.; HP 5890 GC and 5971MS, Hewlett Packard, Palo Alto, Calif.). Abundances of ions at mass to charge ratio (m/z) 467 and 469 were quantified under selected ion recording mode for deoxyadenosine (dA); and m/z 555 and 557 were monitored for deoxyguanosine (dG). Under the derivatization and GC-MS conditions employed, the purines (dA and dG) gave larger peaks (FIG. 3) than the pyrimidines, resulting in greater sensitivity and a higher signal-to-noise ratio. To measure the enrichment of glucose, plasma or culture media were deproteinized with perchloric acid and passed through anion and cation exchange columns (Neese et al., 1995, J. Biol. Chem. 270:14452-14463). The glucose penta-acetate derivative was formed by incubation with acetic anhydride in pyridine. GC-MS analysis was performed as described previously (Neese et al., 1995, J. Biol. Chem […]), monitoring m/z 331 and 333 under selected ion recording.
Four rats (approximately 250 g) were infused with labeled glucose. […] DNA was extracted from cell preparations, then hydrolyzed to nucleosides and analyzed by GC-MS (FIG. 2). […]

[3] = test system: HIV-1; conditions: Patient #6, previous protease inhibitor
[4] = test system: hepatocyte cell line, HepG2; assay: Label incorporation into dA of DNA in cultured HepG2 cells (GC-MS, cell counting); format: cell-based; conditions: HepG2, unlabeled glycerol
Experimental: (§2) DNA was prepared from cells or tissues by phenol-chloroform-isoamyl alcohol extraction of cell suspensions or tissue homogenates. Yield and purity were confirmed by optical density. After heat denaturation, DNA was hydrolyzed enzymatically to deoxyribonucleosides by sequential digestion with nuclease P1, phosphodiesterase, and alkaline phosphatase, as described by Crain et al. (Crain, 1990, Methods Enzymol. 193:782-790). Nucleoside yield and purity were confirmed by HPLC using a C-18 column and water-methanol gradient (Shigenaga et al., 1994, Methods Enzymol. 234:16-33).
as §1, with “(dG).” for “(dG). Under the derivatization and GC-MS conditions employed, the purines (dA and dG) gave larger peaks (FIG. 3) than the pyrimidines, resulting in greater sensitivity and a higher signal-to-noise ratio.”
(§3) Two cell lines were used: a hepatocyte cell line, HepG2, and a lymphocytic cell line, H9, which is a CD4^+ T cell line. […] In both cases the number of cells present was measured by counting an aliquot on a Coulter ZM0901 cell counter. […]

[5] = test system: lymphocytic cell line, H9; assay: Label incorporation into dA of DNA in cultured H9 cells (GC-MS, cell counting); format: cell-based; conditions: H9, unlabeled glycerol
Experimental: as §2
as §1, with “(dG).” for “(dG). Under the derivatization and GC-MS conditions employed, the purines (dA and dG) gave larger peaks (FIG. 3) than the pyrimidines, resulting in greater sensitivity and a higher signal-to-noise ratio.”
as §3

[2H]C([2H])(O)[C@H]1OC(O)[C@H](O)[C@@H](O)[C@@H]1O (stereo partly drawn) [[6,6-^2H2] glucose]
Plasma enrichment after discontinuing the intravenous infusion, % of steady-state values [1]: < 10% | Mean glucose enrichment for the 24 hr infusion period ([2]; rat, in vivo): 9.2±0.6% | Plasma glucose enrichment at sacrifice ([2]; rats (n=4), iv infusion approximately 24 hours, fasting): 13.2±0.9%

CC(C)(C)NC(=O)[C@@H]1CN(Cc2cccnc2)CCN1C[C@@H](O)C[C@@H](Cc1ccccc1)C(=O)N[C@H]1c2ccccc2C[C@H]1O [indinavir]
viral load at failure [3]: 28,000

OCC(O)CO [unlabeled glycerol, glycerol]
Reduction of incorporation into dA from 10% [6,6-^2H2] glucose [4]: 7% | Effect on labeling from 10% [6,6-^2H2] glucose [5]: did not affect labeling
